Measured values: US11226337B2, “Chemoproteomic profiling of protein electrophilic and oxidative post-translational modifications” (Zenagem, LLC, priority 2017, dated 2022)
“Also recorded” adds a separate entry of the source.

Tests used:
AMD1 = target: T1, AMD1 (Homo sapiens, UniProt P17707); assay: gel-based RP-ABPP of transfected HEK293T cells; type: cell-based; details: for blocking of probe labeling by excess non-clickable probe: transfected HEK293T cells
T1 construct: Full-length genes encoding three probe 1- and one probe 2-targeted proteins were amplified from a cDNA library; expressed in transfected cells; host or cells: HEK293T
T1 sequence (P17707 68-334 limits assumed): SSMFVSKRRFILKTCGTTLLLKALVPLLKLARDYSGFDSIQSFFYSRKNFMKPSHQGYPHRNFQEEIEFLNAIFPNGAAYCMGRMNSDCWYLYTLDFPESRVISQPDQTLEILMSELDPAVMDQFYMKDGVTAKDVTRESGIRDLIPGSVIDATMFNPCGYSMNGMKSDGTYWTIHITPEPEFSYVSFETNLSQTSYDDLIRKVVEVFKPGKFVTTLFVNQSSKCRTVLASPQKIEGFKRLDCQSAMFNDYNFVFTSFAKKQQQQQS
T1 sequence (P17707 1-67 limits assumed): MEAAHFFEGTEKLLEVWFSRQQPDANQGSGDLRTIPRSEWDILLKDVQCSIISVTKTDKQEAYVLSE

[1] = target: T2, SCRN2 Secernin-2 (Q96FV2) (Homo sapiens, UniProt Q96FV2); assay: SILAC RP-ABPP; type: cell-based; details: SILAC competition, drug in place of probe 3
T2 construct: shared by both the endogenous and recombinant forms of these proteins; endogenous in cells; host or cells: HEK293T and MDA-MB-231
Procedure: (§1) Modifications to this protocol included using isotopically ‘light’ and ‘heavy’ SILAC cells that were also grown to near complete confluence prior to treatment. Isotopically light cells were treated with the non-clickable hydrazine probe (at the same concentration as the probe in ‘enrichment’ experiments) or the probe in the presence of 10-fold excess non-clickable hydrazine probe as a competitor (in ‘competition’ experiments). Isotopically heavy cells were treated with the probe for both types of experiments. These treatments were performed in non-SILAC media. Following treatments, cells were washed with cold PBS to remove the probe-containing media, harvested by scraping, collected by centrifugation (1,400 g, 3 min, 4° C.), washed again by resuspension in cold PBS and frozen as pellets at −80° C. until use.
(§2) The fractionated equimolar mixture of heavy and light soluble proteomes (1-1.5 mg) was diluted to 1 mL in PBS. Click reactions were scaled accordingly (except for biotin-azide) to maintain final concentrations of 0.1 mM TBTA, 1 mM CuSO4, 100 μM biotin-azide (10 mM in DMSO) and 1 mM TCEP. The mixture was vortexed and placed on a rotator at ambient temperature for 1 hour. Sequential addition of and mixture with pre-chilled methanol (MeOH, 2 mL), chloroform (CHCl3, 0.5 mL) and PBS (1 mL) on ice quenched the reaction. The precipitated proteome was centrifuged (5,000 g, 10 min, 4° C.) to fractionate the protein interphase from the organic and aqueous solvent layers. The protein pellet was washed with cold 1:1 MeOH:CHCl3 (3×1 mL), mildly sonicated in cold 4:1 MeOH:CHCl3 (2.5 mL) and pelleted once more by centrifugation (5,000 g, 10 min, 4° C.) to ensure click reagents were efficiently removed.
(§3) Heavy and light parent ion chromatograms associated with successfully identified peptides were extracted and compared using CIMAGE software as previously described^69. At least one ion of a co-eluting heavy-light pair must be accurately identified from a fragmentation event that occurred within the retention time window (±10 min) of parent ion elution. To ensure that the correct pair of peaks is quantified, chromatograms are extracted within a 10 ppm error tolerance of the predicted m/z, the signal-to-noise ratio must be >2.5 and the ‘co-elution correlation score’ and ‘envelope correlation score’ must have R^2 values ≥0.8. In addition, peptides detected as ‘singletons,’ where only the heavy ion of a peptide pair was identified, but for which passed all other filtering parameters, are given a default assigned ratio of ‘20,’ which is defined as any measured ratio that is ≥20.
(§4) To further eliminate false positives and any stochastic variability in the data, protein ratios were then determined by the median peptide ratio derived from three or more unique quantified peptides. Protein ratios that complied with these criteria from a single experiment were then averaged with ratios acquired from ≥3 replicates to provide final values for each type of experiment in both cell lines with both probes. […] Probe targets in HEK293T and MDA-MB-231 cells represent data combined from ≥3 independent biological replicates with each cell type performed with several independent batches of synthesized probes over a period of almost two years.
(§5) Two types of experiments were performed—1) direct enrichment of probe 1-labelled proteins from heavy cells in comparison to light control cells treated with the non-clickable hydrazine (3) at the same concentration as 1 (3 mM for 0.5 h); and 2) competition experiments where both heavy and light cells were treated probe 1, but light cells were also treated with 10× competitor 3 (FIG. 3A)—in two different human cell lines (HEK293T cells and the human breast cancer cell line MDA-MB-231).

[2] = target: T3, SCRN3 Secernin-3 (Q0VDG4) (Homo sapiens, UniProt Q0VDG4); assay: SILAC RP-ABPP; type: cell-based; details: SILAC competition, drug in place of probe 3
T3 construct: shared by both the endogenous and recombinant forms of these proteins; endogenous in cells; host or cells: HEK293T and MDA-MB-231
T3 sequence (Q0VDG4 6-424): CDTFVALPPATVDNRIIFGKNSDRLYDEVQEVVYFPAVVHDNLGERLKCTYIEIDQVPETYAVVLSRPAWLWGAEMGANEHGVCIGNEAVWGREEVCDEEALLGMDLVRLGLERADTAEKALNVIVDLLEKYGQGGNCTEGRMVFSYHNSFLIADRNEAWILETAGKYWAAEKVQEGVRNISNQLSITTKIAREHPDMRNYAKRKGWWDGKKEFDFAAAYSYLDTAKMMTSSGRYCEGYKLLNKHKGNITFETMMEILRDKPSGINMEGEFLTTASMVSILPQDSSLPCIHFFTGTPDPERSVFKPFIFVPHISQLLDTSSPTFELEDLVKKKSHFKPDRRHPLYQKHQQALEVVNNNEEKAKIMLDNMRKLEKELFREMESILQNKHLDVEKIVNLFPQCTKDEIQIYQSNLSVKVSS
Procedure: as §1, §2, §3, §4, §5

LGMN Legumain (Q99538) = target: T4, LGMN Legumain (Q99538) (Homo sapiens, UniProt Q99538); assay: SILAC RP-ABPP; type: cell-based; details: SILAC competition, drug in place of probe 3
T4 construct: shared by both the endogenous and recombinant forms of these proteins; endogenous in cells; host or cells: HEK293T and MDA-MB-231
T4 sequence (Q99538 18-323): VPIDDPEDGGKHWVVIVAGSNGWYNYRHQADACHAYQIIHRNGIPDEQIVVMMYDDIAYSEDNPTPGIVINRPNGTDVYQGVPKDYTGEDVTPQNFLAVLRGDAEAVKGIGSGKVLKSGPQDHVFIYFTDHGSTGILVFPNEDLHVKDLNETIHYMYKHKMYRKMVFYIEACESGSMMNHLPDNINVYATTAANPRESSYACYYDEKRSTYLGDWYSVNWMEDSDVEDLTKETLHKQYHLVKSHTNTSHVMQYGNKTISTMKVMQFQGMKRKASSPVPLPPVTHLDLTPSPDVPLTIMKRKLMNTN
Procedure: as §1, §2, §3, §4, §5

[3] = target: T5, AMD1 S-adenosylmethionine decarboxylase (P17707) (Homo sapiens, UniProt P17707); assay: SILAC RP-ABPP; type: cell-based; details: SILAC competition, drug in place of probe 3
T5 construct: shared by both the endogenous and recombinant forms of these proteins; endogenous in cells; host or cells: HEK293T and MDA-MB-231
T5 sequence (P17707 68-334 limits assumed): T1 sequence (P17707 68-334 limits assumed)
T5 sequence (P17707 1-67 limits assumed): T1 sequence (P17707 1-67 limits assumed)
Procedure: as §1, §2, §3, §4, §5

HEK293T cells = assay: gel-based in situ probe labelling (rhodamine-azide, in-gel fluorescence); type: cell-based, human; details: probe 1 3 mM, 30 min; dihydrochloride
Procedure: For gel-based experiments, cells were plated and grown to near complete confluence at the time of treatment. Cells were washed with cold phosphate buffered saline (PBS, pH 7.4) and replenished with serum-free DMEM (˜15% of normal passage volume, e.g. a 10 cm plate normally passaged with 10 mL media received 1.5 mL) supplemented with 10 mM Na-HEPES buffer (pH 7.5). Unless otherwise indicated, cells were incubated with probes (3 mM and 1 mM for probes 1 and 2, respectively) in the absence or presence of 10-fold excess non-clickable competitor probes (30 mM and 10 mM for 3 and 4, respectively) for 0.5 hour at 37° C. When applicable, probe and competitor were premixed before co-administering to the cells.
The cells were lysed, and the cell proteomes were conjugated to a rhodamine-azide (Rh—N3) reporter tag.
(§6) Soluble proteomes from treated cells were diluted to 1 mg/mL. To each sample (50 μL), a freshly prepared “click” or CuAAC reagent mixture (6 μL) containing 0.1 mM tris(benzyltriazolylmethyl)amine (TBTA) (3 μL/sample, 1.7 mM in 4:1 DMSO:t-BuOH), 1 mM CuSO4 (1 μL/sample, 50 mM in H2O), 25 μM azide-rhodamine (1 μL/sample, 1.25 mM in DMSO), and freshly prepared 1 mM tris(2-carboxyethyl)phosphine (TCEP) (1 μL/sample, 50 mM in PBS or H2O) was added to conjugate the fluorophore to probe-labelled proteins. TBTA was purchased from TCI and azide-rhodamine was synthesized as previously described^64. Upon addition of the click mixture, each reaction was immediately mixed by vortexing and then allowed to react at ambient temperature for 1 hour before quenching the reactions with SDS loading buffer (4× stock, 17 μL). Proteins (˜25 μg total protein loaded per gel lane) were resolved by SDS-PAGE (10% acrylamide) and visualized by in-gel fluorescence scanning on a Hitachi FMBIO-II or BioRad ChemiDoc MP flatbed fluorescence scanner.

FTO = target: T6, FTO (Homo sapiens, UniProt Q9C0B1); assay: gel-based RP-ABPP of transfected HEK293T cells; type: cell-based; details: transfected HEK293T cells
T6 construct: Full-length genes encoding three probe 1- and one probe 2-targeted proteins were amplified from a cDNA library; expressed in transfected cells; host or cells: HEK293T
Procedure: as §6
(§7) Full-length genes encoding three probe 1- and one probe 2-targeted proteins were amplified from a cDNA library derived from the same low-passage HEK293T cells used for proteomic profiling. The library was generated using Ribozol RNA extraction (Amresco) and iScript reverse transcription (Bio-rad) supermix reagents. The gene products were cloned into mammalian expression vectors containing N- or C-terminal FLAG affinity tags. The gene for S-adenosyl-L-methionine decarboxylase (AMD1 or AdoMetDC) was cloned into pFLAG-CMV-sport6 (N-terminal tag) at NotI and SalI restriction sites. AMD1, Secernin-3 (SCRN3) and fat mass- and obesity-associated Fe(II)- and 20G-dependent dioxygenase (FTO) were cloned into pRK5 (C-terminal tag) at SalI and NotI restriction sites. Kelch-like ECH-associated protein-1 (Keapl) (N-terminal tag), and empty plasmids of pRK5 were gifts. Full sequences of the genes were confirmed. The proteins expressed via transient transfection in HEK293T cells contain an additional 15 amino acids appended to their N-terminal methionine residue or C-terminus (MDYKD4KLKACGR (SEQ ID NO: 43) and A3G4DYKD4K (SEQ ID NO: 44), respectively). The DYKD4K (SEQ ID NO: 42) appendage in each contains the classic FLAG epitope that permits detection by western blotting or purification by affinity chromatography. Mutants of SCRN3 were generated using QuikChange site-directed mutagenesis with primers containing the desired mutations and their respective compliments. The gene for the deletion mutant of SCRN3 with the sequence MetlCys6-SCRN3 instead of Met1 Glu2Pro3Phe4Ser5Cys6-SCRN3 (SEQ ID NO: 45) was amplified from the wild-type C-terminal FLAG-tagged construct and cloned into the same vector.
(§8) HEK293T cells were grown to ˜40% confluence under standard growth conditions passaged in the appropriate media before adding the appropriate expression vector (control cells (‘mock’) received an equal amount of the appropriate empty vector) and polyethyleneimine (PEI) ‘MAX’ (MW 40,000, Polysciences Inc.) as a transfection reagent under standard transfection conditions (3:1 vector/PEI (w/w) ratio). Cells were incubated for ˜48 h before labelling in situ. Proteomes were processed for gel- and MS-based experiments as described above and in Example 2.
(§9) After scanning fluorescence, that same gel was transferred to nitrocellulose membrane in Towbin buffer, the membrane was blocked for ˜1 hour at ambient temperature with 5% nonfat dry milk (w/v) in Tris-buffered saline with Tween 20 (TBST) and incubated with primary antibodies in the same solution overnight at 4° C. The antibodies included anti-FLAG (1:2500, F1804, Sigma), anti-AdoMetDC (1:500, sc-160951, Santa Cruz Biotechnology) and anti-His6 (1:1000, ab18184, Abcam). The blots were washed (3×5 min, TBST), incubated with secondary antibodies (1:10,000, IRDye 800CW, LICOR) in milk for 1 hour at ambient temperature, washed again (3×5 min, TBST), and visualized on a LICOR Odyssey Scanner.

SCRN3 = target: T7, SCRN3 (Homo sapiens, UniProt Q0VDG4); assay: gel-based RP-ABPP of transfected HEK293T cells; type: cell-based; details: transfected HEK293T cells
T7 construct: Full-length genes encoding three probe 1- and one probe 2-targeted proteins were amplified from a cDNA library; expressed in transfected cells; host or cells: HEK293T
T7 sequence (Q0VDG4 6-424): T3 sequence (Q0VDG4 6-424)
Procedure: as §6, §7, §8, §9

KEAP1 = target: T8, KEAP1 (Homo sapiens, UniProt Q14145); assay: gel-based RP-ABPP of transfected HEK293T cells; type: cell-based; details: transfected HEK293T cells
T8 construct: Full-length genes encoding three probe 1- and one probe 2-targeted proteins were amplified from a cDNA library; expressed in transfected cells; host or cells: HEK293T
Procedure: as §6, §7, §8, §9

SMILES	increase of probe 1 labeling of recombinant AMD1 (AMD1; L-methionine lowered from 200 μM to 10 μM, AMD1 expression negligibly changed)	competition of probe 1 labelling by competitor drug [1]	competition of probe 1 labelling by competitor drug [2]	competition of probe 1 labelling by competitor drug (LGMN Legumain (Q99538))	competition of probe 1 labelling by competitor drug [3]	blocking of probe labeling by excess non-clickable probe (AMD1)	competition of probe 1 labelling by co-administered non-clickable probe (HEK293T cells)	blocking of probe labeling by excess non-clickable probe (FTO)	blocking of probe labeling by excess non-clickable probe (SCRN3)	blocking of probe labeling by excess non-clickable probe (KEAP1)
CSCC[C@H](N)C(=O)O [L-methionine]	seven-fold									
NNC(=O)c1ccncc1 [isoniazid, reference compound]		almost no competition	almost no competition	almost no competition	almost no competition					
NNCCc1ccccc1 [phenelzine, reference compound]		Near complete loss of probe labelling	Near complete loss of probe labelling	Near complete loss of probe labelling	Near complete loss of probe labelling					
CCCNN.Cl.Cl [probe 3, Propyl hydrazine dihydrochloride, reference compound]						blocked	suppressed by increasing concentrations; also recorded: blocks the labeling of proteins by probe 1	blocked	blocked	blocked
Cl.NNc1ccccc1 [probe 4, phenyl hydrazine hydrochloride, reference compound]						blocked		blocked	blocked	blocked
